Laboratory results as given in the supplement of paper PMC10307832.

Key:
Experiment in all cases: relative viability (nuclei count vs DMSO), 5 days (fraction); higher = more cells survive
[1] = tested on: BEN
Outline: (§1)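 Values are medians from duplicate plates. Each reflects relative viability, defined as the nuclei count of treated wells over that of vehicle wells. Lung cancer cell lines in 1536-well plates were pin-tool dosed one day after seeding with one drug alone or with a fixed anchor-drug dose plus five library-drug doses (not always all listed) in √10 steps, then fixed, stained and imaged at 4× after 5 days.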

[2] = tested on: CAL-12T
Outline: as §1

[3] = tested on: COR-L23
Outline: as §1

[4] = tested on: HCC-366
Outline: as §1

[5] = tested on: LOU-NH91
Outline: as §1

[6] = tested on: LU99A
Outline: as §1

[7] = tested on: NCI-H1355
Outline: as §1

[8] = tested on: NCI-H1437
Outline: as §1

[9] = tested on: NCI-H1563
Outline: as §1

[10] = tested on: NCI-H1650
Outline: as §1

[11] = tested on: NCI-H1651
Outline: as §1

[12] = tested on: NCI-H1734
Outline: as §1

[13] = tested on: NCI-H1793
Outline: as §1

[14] = tested on: NCI-H1975
Outline: as §1

[15] = tested on: NCI-H2023
Outline: as §1

[16] = tested on: NCI-H2085
Outline: as §1

[17] = tested on: NCI-H2342
Outline: as §1

[18] = tested on: NCI-H358
Outline: as §1

[19] = tested on: NCI-H441
Outline: as §1

[20] = tested on: NCI-H460
Outline: as §1

[21] = tested on: NCI-H838
Outline: as §1

[22] = tested on: SK-LU-1
Outline: as §1

`Cc1sc2c(c1C)C(c1ccc(Cl)cc1)=N[C@@H](CC(=O)OC(C)(C)C)c1nnc(C)n1-2` [JQ1] + COc1cccc2cc(-c3nc([C@H]4CC[C@H](C(=O)O)CC4)n4ncnc(N)c34)[nH]c12 [OSI-027] (partner 0.5 µM) gave a relative viability ([1]; first compound 0.04 µM) of 0.282, a relative viability ([1]; first compound 0.1265 µM) of 0.286 and a relative viability ([1]; first compound 0.4 µM) of 0.335. The relative viability ([1]; first compound 1.265 µM) was 0.252, the relative viability ([1]; first compound 4 µM) was 0.2 and the relative viability ([2]; first compound 0.04 µM) was 0.618. It also gave a relative viability ([2]; first compound 0.1265 µM) of 0.586, a relative viability ([2]; first compound 0.4 µM) of 0.32 and a relative viability ([2]; first compound 1.265 µM) of 0.192. For the same molecule, the relative viability ([2]; first compound 4 µM) was 0.173, the relative viability ([3]; first compound 0.04 µM) was 0.861 and the relative viability ([3]; first compound 0.1265 µM) was 0.662. The relative viability ([3]; first compound 0.4 µM) was 0.699, the relative viability ([3]; first compound 1.265 µM) was 0.293 and the relative viability ([3]; first compound 4 µM) was 0.46. It also gave a relative viability ([4]; first compound 0.04 µM) of 0.958, a relative viability ([4]; first compound 0.4 µM) of 0.783 and a relative viability ([4]; first compound 1.265 µM) of 0.336. It also gave a relative viability ([4]; first compound 4 µM) of 0.31, a relative viability ([5]; first compound 0.04 µM) of 0.721 and a relative viability ([5]; first compound 0.1265 µM) of 0.674. The relative viability ([5]; first compound 0.4 µM) was 0.564, the relative viability ([5]; first compound 1.265 µM) was 0.537 and the relative viability ([5]; first compound 4 µM) was 0.431. The relative viability ([6]; first compound 0.04 µM) was 0.299, the relative viability ([6]; first compound 0.1265 µM) was 0.268 and the relative viability ([6]; first compound 0.4 µM) was 0.316. For the same molecule, the relative viability ([6]; first compound 1.265 µM) was 0.234, the relative viability ([6]; first compound 4 µM) was 0.209 and the relative viability ([7]; first compound 0.04 µM) was 0.429. For the same molecule, the relative viability ([7]; first compound 0.1265 µM) was 0.374, the relative viability ([7]; first compound 0.4 µM) was 0.42 and the relative viability ([7]; first compound 1.265 µM) was 0.25. The relative viability ([7]; first compound 4 µM) was 0.253, the relative viability ([8]; first compound 0.04 µM) was 0.871 and the relative viability ([8]; first compound 0.1265 µM) was 0.809. The relative viability ([8]; first compound 0.4 µM) was 0.599, the relative viability ([8]; first compound 1.265 µM) was 0.36 and the relative viability ([8]; first compound 4 µM) was 0.319. It also gave a relative viability ([9]; first compound 0.04 µM) of 0.735, a relative viability ([9]; first compound 0.1265 µM) of 0.704 and a relative viability ([9]; first compound 0.4 µM) of 0.605. The relative viability ([9]; first compound 1.265 µM) was 0.552, the relative viability ([9]; first compound 4 µM) was 0.545 and the relative viability ([10]; first compound 0.04 µM) was 0.51. It also gave a relative viability ([10]; first compound 0.1265 µM) of 0.447, a relative viability ([10]; first compound 0.4 µM) of 0.328 and a relative viability ([10]; first compound 1.265 µM) of 0.153. For the same molecule, the relative viability ([10]; first compound 4 µM) was 0.206, the relative viability ([11]; first compound 0.04 µM) was 0.624 and the relative viability ([11]; first compound 0.1265 µM) was 0.638. The relative viability ([11]; first compound 0.4 µM) was 0.591, the relative viability ([11]; first compound 1.265 µM) was 0.391 and the relative viability ([11]; first compound 4 µM) was 0.407. It also gave a relative viability ([12]; first compound 0.04 µM) of 0.619, a relative viability ([12]; first compound 0.1265 µM) of 0.508 and a relative viability ([12]; first compound 0.4 µM) of 0.601. The relative viability ([12]; first compound 1.265 µM) was 0.354, the relative viability ([12]; first compound 4 µM) was 0.413 and the relative viability ([13]; first compound 0.04 µM) was 0.237. For the same molecule, the relative viability ([13]; first compound 0.1265 µM) was 0.343, the relative viability ([13]; first compound 0.4 µM) was 0.38 and the relative viability ([13]; first compound 1.265 µM) was 0.241. For the same molecule, the relative viability ([13]; first compound 4 µM) was 0.286, the relative viability ([14]; first compound 0.04 µM) was 0.708 and the relative viability ([14]; first compound 0.1265 µM) was 0.527. For the same molecule, the relative viability ([14]; first compound 0.4 µM) was 0.62, the relative viability ([14]; first compound 1.265 µM) was 0.437 and the relative viability ([14]; first compound 4 µM) was 0.393. The relative viability ([15]; first compound 0.04 µM) was 0.362, the relative viability ([15]; first compound 0.1265 µM) was 0.377 and the relative viability ([15]; first compound 0.4 µM) was 0.262. For the same molecule, the relative viability ([15]; first compound 1.265 µM) was 0.142, the relative viability ([15]; first compound 4 µM) was 0.148 and the relative viability ([16]; first compound 0.04 µM) was 0.763. The relative viability ([16]; first compound 0.1265 µM) was 0.519, the relative viability ([16]; first compound 0.4 µM) was 0.574 and the relative viability ([16]; first compound 1.265 µM) was 0.368. For the same molecule, the relative viability ([16]; first compound 4 µM) was 0.323, the relative viability ([17]; first compound 0.04 µM) was 0.695 and the relative viability ([17]; first compound 0.1265 µM) was 0.605. For the same molecule, the relative viability ([17]; first compound 0.4 µM) was 0.702, the relative viability ([17]; first compound 1.265 µM) was 0.681 and the relative viability ([17]; first compound 4 µM) was 0.52. The relative viability ([18]; first compound 0.04 µM) was 0.705, the relative viability ([18]; first compound 0.1265 µM) was 0.796 and the relative viability ([18]; first compound 0.4 µM) was 0.748. For the same molecule, the relative viability ([18]; first compound 1.265 µM) was 0.47, the relative viability ([18]; first compound 4 µM) was 0.461 and the relative viability ([19]; first compound 0.04 µM) was 0.718. The relative viability ([19]; first compound 0.1265 µM) was 0.583, the relative viability ([19]; first compound 0.4 µM) was 0.705 and the relative viability ([19]; first compound 1.265 µM) was 0.392. The relative viability ([19]; first compound 4 µM) was 0.334, the relative viability ([20]; first compound 0.04 µM) was 0.594 and the relative viability ([20]; first compound 0.1265 µM) was 0.366. For the same molecule, the relative viability ([20]; first compound 0.4 µM) was 0.259, the relative viability ([20]; first compound 1.265 µM) was 0.0873 and the relative viability ([20]; first compound 4 µM) was 0.0909. For the same molecule, the relative viability ([21]; first compound 0.04 µM) was 0.379, the relative viability ([21]; first compound 0.1265 µM) was 0.369 and the relative viability ([21]; first compound 0.4 µM) was 0.433. For the same molecule, the relative viability ([21]; first compound 1.265 µM) was 0.251, the relative viability ([21]; first compound 4 µM) was 0.21 and the relative viability ([22]; first compound 0.04 µM) was 0.381. The relative viability ([22]; first compound 0.1265 µM) was 0.333, the relative viability ([22]; first compound 0.4 µM) was 0.253 and the relative viability ([22]; first compound 1.265 µM) was 0.158. The relative viability ([22]; first compound 4 µM) was 0.143.
